Laboratory results from US5700774A, “Compositions comprising bone morphogenic proteins and truncated parathyroid hormone related peptide, and methods of inducing cartilage by administration of same” (Genetics Institute, Inc., priority 1996, dated 1997).

Tested on: cell lines derived from E13 mouse limb buds
Experiment: Northern analysis of tissue specific mRNA expression in limb bud cell lines
Type: cell-based
Details: PTHrP1-34 alone, 100 ng/ml, 1, 2, 4 or 8 days
Experimental: PTHrP was tested for its effect on cell lines derived from E13 mouse limb buds either alone or in combination with BMP-2. Cells were grown to confluence in DME medium supplemented with 10% fetal calf serum (FCS). At confluence, cells were transferred to DME medium supplemented with 1% FCS and cultured for 1, 2, 4 or 8 days in the presence of either BMP-2 (100 ng/ml), PTHrP1-34 (100 ng/ml)(Peninsular Laboratories Inc). or a combination of BMP-2 and PTHrP1-34. Northern analysis was used to determine expression of tissue specific mRNAs for cartilage (proteoglycan core protein, collagen type II and decorin), bone (osteocalcin, alkaline phosphatase and collagen type I) and hypertrophic cartilage (collagen type X).

In the case of “PTHrP1-34: truncated peptide which comprises the first 34 amino acids of PTHrP (Peninsular Laboratories Inc)”, the “expression of any of the tissue specific mRNAs (cartilage, bone, hypertrophic cartilage markers)” value is reported as “did not induce expression”.
